{"source": "ChEMBL document CHEMBL1153127", "about": "“p16(INK4a) Peptide mimetics identified via virtual screening” (Bioorg Med Chem Lett, 2010)", "type_in_all_cases": "protein-complex assay", "key": {"[1]": {"molecular_target": "Cyclin-dependent kinase 4/cyclin D1 (Homo sapiens, UniProt P11802)", "sequence (P11802 whole entry)": "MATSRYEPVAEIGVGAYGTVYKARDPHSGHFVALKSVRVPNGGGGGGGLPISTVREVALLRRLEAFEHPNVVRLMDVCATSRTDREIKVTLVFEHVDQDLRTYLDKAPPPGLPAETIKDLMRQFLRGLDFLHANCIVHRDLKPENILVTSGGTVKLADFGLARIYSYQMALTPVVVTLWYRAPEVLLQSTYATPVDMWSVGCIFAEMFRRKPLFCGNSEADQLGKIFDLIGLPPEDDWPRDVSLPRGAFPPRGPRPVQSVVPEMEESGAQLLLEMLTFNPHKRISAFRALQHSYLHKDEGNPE", "sequence (P24385 whole entry, further chain)": "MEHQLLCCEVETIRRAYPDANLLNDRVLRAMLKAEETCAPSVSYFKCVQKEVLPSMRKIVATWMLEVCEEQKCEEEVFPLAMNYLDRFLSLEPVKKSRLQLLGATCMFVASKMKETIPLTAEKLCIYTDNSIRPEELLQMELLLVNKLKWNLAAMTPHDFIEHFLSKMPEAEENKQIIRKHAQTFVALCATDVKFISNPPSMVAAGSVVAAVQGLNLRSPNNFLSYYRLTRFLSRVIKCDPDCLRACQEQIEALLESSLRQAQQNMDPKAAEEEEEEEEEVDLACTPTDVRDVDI", "assay": "Inhibition of CDK4/Cyclin D1 by FRET assay; call rule not given here"}, "[2]": {"molecular_target": "CDK6/cyclin D1 (Homo sapiens, UniProt Q00534)", "sequence (P24385 whole entry)": "as the sequence (P24385 whole entry, further chain) above", "sequence (Q00534 whole entry)": "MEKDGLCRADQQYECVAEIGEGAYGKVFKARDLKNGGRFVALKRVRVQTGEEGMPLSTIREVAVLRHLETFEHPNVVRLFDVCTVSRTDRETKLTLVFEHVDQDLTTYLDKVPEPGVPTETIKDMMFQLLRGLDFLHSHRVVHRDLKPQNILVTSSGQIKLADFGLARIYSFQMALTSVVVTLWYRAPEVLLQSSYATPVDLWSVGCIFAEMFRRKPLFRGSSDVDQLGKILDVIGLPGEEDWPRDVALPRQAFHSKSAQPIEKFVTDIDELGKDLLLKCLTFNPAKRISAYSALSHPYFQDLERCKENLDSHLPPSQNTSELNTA", "assay": "(§1) Inhibition of CDK6/Cyclin D1 by FRET assay"}, "[3]": {"molecular_target": "CDK6/cyclin D1 (Homo sapiens, UniProt P24385+Q00534)", "sequence (P24385 whole entry)": "as the sequence (P24385 whole entry, further chain) above", "sequence (Q00534 whole entry)": "as the sequence (Q00534 whole entry) above", "assay": "as §1"}}}
{"smiles": "COc1cc(NCCCN(CCC(C)C)CCC(C)C)c2ncccc2c1", "values": [{"measurement": "IC50", "setting": "[1]", "result": 162, "unit": "µM"}, {"measurement": "IC50", "setting": "[2]", "result": 325, "unit": "µM"}]}
{"smiles": "COc1cc(NCCN(CC(C)C)CC(C)C)c2ncc(C)cc2c1", "values": [{"measurement": "IC50", "setting": "[1]", "result": 128, "unit": "µM"}, {"measurement": "IC50", "setting": "[3]", "result": "Not Active"}]}
